Read-outs that look alike come from different tables or passages of the source.
Test: Pharmacokinetics of compound I-1 in the dog by intravenous, oral gavage and oral capsule routes
Type: in vivo, beagle dogs
Details: male, beagle, dog, plasma; for concentration at 4 h / concentration at 8 h / concentration at 12 h / concentration at 0.25 h / concentration at 0.5 h / concentration at 1 h / concentration at 2 h: read-out: Concentration at time point; for bioavailability: read-out: BioA (bioavailability)
Method: A pharmacokinetic study was conducted to compare the bioavailability of capsule and suspension oral formulations vs. an intravenous formulations.
The standard curve was prepared from 1 to 2,000 ng/mL. QC samples were prepared at […]. Dilution QCs were prepared at 10-fold dilution. Deuterated (d6) I-1 (compound 1-7) was used as an internal standard. A 50 μL aliquot of sample was added to 150 μL of cold internal standard in acetonitrile to effect protein precipitation. The resulting supernatants were analyzed by LCMS. Diluted sample data was utilized only for over-the-curve results.
Briefly, 9 male non-naïve beagle dogs were assigned in groups of 3 to 3 dose groups. Group 1 was dosed 3 mg/kg by the intravenous route in a vehicle of 20% sulfobutylether-β-cyclodextrin (SBECD). Group 2 was dosed 10 mg/kg by the oral gavage route in a vehicle of 0.5% methylcellulose (MC). Group 3 was dosed with 100 mg capsules.
The I-1 100 mg capsules are manufactured as a non-sterile spray dried, granulated powder blend. The blend is then filled into capsules for oral delivery. The capsules are packaged in high-density polyethylene bottles. The quantitative composition of the I-1 100 mg capsule is presented above in Table B.
Procedure: (PO) gavage: formulations will be administered via a rubber oral gavage tube followed by a 10 mL flush with drinking water. (PO) tablet: tablets will be administered orally by placing the tablet in the back of the throat followed by a 10 mL flush with water.
Frequency: Pre-dose, 5, 15, 30 min, 1, 2, 4, 8, and 12 hrs post-dose (IV); pre-dose, 15, 30 min, 1, 2, 4, 8, and 12 hrs post-dose (PO by gavage and PO by capsule).
Blood collection: each blood sample will be collected from the dog's jugular vein or other accessible vein via direct venepuncture, placed into a pre-labeled tube containing K2EDTA and kept on ice until centrifugation.
Plasma preparation and storage: Certifuged at 4 C at 3,000× for 5 mm. Stored in a freezer until analysed.
Pharmacokinetics package PKSolver2.0™ has been validated against WinNonLin™ as a tool for non-GLP studies and was used to process the pharmacokinetic data.
For each route, the average data were processed with non-compartmental, one compartment, and two compartment models. The models were assessed for goodness of fit and the accuracy of the model to assess the biphasic data, with either a) no weighting, b) 1/concentration observed, or c) 1/concentration observed squared. 1/concentration predicted, and 1/concentration predicted squared weightings were also assessed for best fit. […] The zeros were averaged with the 71.5 value for a resulting average of 23.8. For the In Group 2 (PO Gavage) subject 3 experienced 30 mL of emesis, so the dose assigned to that subject was 7.46. In all cases, the subjects were modelled individually, and the individual PK parameters were averaged to provide final parameters.
For group 1 (intravenous) the final model selected was a two compartment model with 1/concentration observed squared weighting.
For group 2 (oral gavage) the final model was a two compartment extravascular model with 1/concentration predicted squared weighting.
For group 3 (oral capsule) the final model was a one compartment extravascular model with a lag time and no weighting. […] The body weight of each animal was used to assign a mg/kg dose to each individual. Subject 1 was dosed at 7.69 mg/kg. Subject 2 was 6.94 mg/kg, and Subject 3 was 6.99 mg/kg.

[1] = oral, 7 mg/kg, Group 3: PO Capsule 7 mg/kg, Subject 1
[2] = oral, 7 mg/kg, Group 3: PO Capsule 7 mg/kg, Subject 2
[3] = oral, 7 mg/kg, Group 3: PO Capsule 7 mg/kg, Subject 3
[4] = oral, 7 mg/kg, Group 3: PO Capsule 7 mg/kg, Average
[5] = oral, 7.2 mg/kg, 100 mg Capsule, average dose 7.2 mg/kg, Average
[6] = po, 7.2 mg/kg, 100 mg Capsule, average dose 7.2 mg/kg, Average
[7] = po, 7.2 mg/kg, 100 mg Capsule, average dose 7.2 mg/kg, Subj1
[8] = po, 7.2 mg/kg, 100 mg Capsule, average dose 7.2 mg/kg, Subj2
[9] = po, 7.2 mg/kg, 100 mg Capsule, average dose 7.2 mg/kg, Subj3
[10] = po, 10 mg/kg, Group 2: PO Gavage 10 mg/kg, Average
[11] = po, 10 mg/kg, Group 2: PO Gavage 10 mg/kg, Subject 1
[12] = po, 10 mg/kg, Group 2: PO Gavage 10 mg/kg, Subject 2
[13] = po, 10 mg/kg, Group 2: PO Gavage 10 mg/kg, Subject 3
[14] = po, 10 mg/kg, Oral Gavage 0.5% Methylcellulose 10 mg/kg, Average
[15] = po, 10 mg/kg, Oral Gavage 0.5% Methylcellulose 10 mg/kg, Subj1
[16] = po, 10 mg/kg, Oral Gavage 0.5% Methylcellulose 10 mg/kg, Subj2
[17] = po, 10 mg/kg, Oral Gavage 0.5% Methylcellulose 10 mg/kg, Subj3

Compound CC(C)(O)c1nc2ccccc2cc1N [I-1] has a concentration at 4 h [1] of 1070 ng/mL, a concentration at 4 h [2] of 736 ng/mL and a concentration at 4 h [3] of 1150 ng/mL. The concentration at 8 h [4] was 223 ng/mL, the concentration at 8 h [1] was 195 ng/mL and the concentration at 8 h [2] was 147 ng/mL. For the same compound, the concentration at 8 h [3] was 327 ng/mL, the concentration at 12 h [4] was 94.5 ng/mL and the concentration at 12 h [1] was 58.7 ng/mL. It also gave a concentration at 12 h [2] of 58 ng/mL, a concentration at 12 h [3] of 167 ng/mL and a Tmax [5] of 2.37 h. It also gave a bioavailability [5] of 83%, a concentration at 0.25 h (oral, 100 mg, Group 3: PO Capsule 7 mg/kg, Average) of 23.8 ng/mL and a concentration at 0.25 h (oral, 100 mg, Group 3: PO Capsule 7 mg/kg, Subject 2) of 71.5 ng/mL. The AUC(0-inf) [6] was 8170 ng·h/mL, the AUC(0-t) [6] was 8080 ng·h/mL and the Cmax [6] was 1700 ng/mL. It also gave a half-life [6] of 1.33 h, an AUC(0-inf) [7] of 7350 ng·h/mL and an AUC(0-t) [7] of 7240 ng·h/mL. It also gave a Cmax [7] of 1390 ng/mL, a Tmax [7] of 2.57 h and a half-life [7] of 1.38 h. The AUC(0-inf) [8] was 5610 ng·h/mL, the AUC(0-t) [8] was 5490 ng·h/mL and the Cmax [8] was 986 ng/mL. For the same compound, the Tmax [8] was 2.37 h, the half-life [8] was 1.49 h and the AUC(0-inf) [9] was 11600 ng·h/mL. It also gave an AUC(0-t) [9] of 11500 ng·h/mL, a Cmax [9] of 2730 ng/mL and a Tmax [9] of 2.16 h. The half-life [9] was 1.1 h, the concentration at 0.25 h [10] was 2480 ng/mL and the concentration at 0.25 h [11] was 3360 ng/mL. It also gave a concentration at 0.25 h [12] of 2760 ng/mL, a concentration at 0.25 h [13] of 1310 ng/mL and a concentration at 0.5 h [10] of 4320 ng/mL. For the same compound, the concentration at 0.5 h [11] was 5400 ng/mL, the concentration at 0.5 h [12] was 4290 ng/mL and the concentration at 0.5 h [13] was 3260 ng/mL. The concentration at 1 h [10] was 2700 ng/mL, the concentration at 1 h [11] was 2970 ng/mL and the concentration at 1 h [12] was 2610 ng/mL. The concentration at 1 h [13] was 2520 ng/mL, the concentration at 2 h [10] was 1420 ng/mL and the concentration at 2 h [11] was 1890 ng/mL. It also gave a concentration at 2 h [12] of 1470 ng/mL, a concentration at 2 h [13] of 908 ng/mL and a concentration at 4 h [10] of 787 ng/mL. The concentration at 4 h [11] was 909 ng/mL, the concentration at 4 h [12] was 909 ng/mL and the concentration at 4 h [13] was 541 ng/mL. It also gave a concentration at 8 h [10] of 157 ng/mL, a concentration at 8 h [11] of 131 ng/mL and a concentration at 8 h [12] of 233 ng/mL. The concentration at 8 h [13] was 108 ng/mL, the concentration at 12 h [10] was 45.1 ng/mL and the concentration at 12 h [11] was 28.1 ng/mL. It also gave a concentration at 12 h [12] of 59.1 ng/mL, a concentration at 12 h [13] of 48.1 ng/mL and an AUC(0-inf) [14] of 9550 ng·h/mL. It also gave an AUC(0-t) [14] of 9360 ng·h/mL, a Cmax [14] of 3560 ng/mL and a Tmax [14] of 0.518 h. The half-life [14] was 3.02 h, the bioavailability [14] was 75% and the AUC(0-inf) [15] was 11200 ng·h/mL. The AUC(0-t) [15] was 11100 ng·h/mL, the Cmax [15] was 4350 ng/mL and the Tmax [15] was 0.459 h. For the same compound, the half-life [15] was 2.85 h, the AUC(0-inf) [16] was 10100 ng·h/mL and the AUC(0-t) [16] was 9910 ng·h/mL. For the same compound, the Cmax [16] was 3670 ng/mL, the Tmax [16] was 0.46 h and the half-life [16] was 2.13 h. It also gave an AUC(0-inf) [17] of 7330 ng·h/mL, an AUC(0-t) [17] of 7050 ng·h/mL and a Cmax [17] of 2650 ng/mL. The Tmax [17] was 0.635 h and the half-life [17] was 4.08 h.
